# Source: the kinase profiling compilation of Christmann-Franck et al. (2016)
# Key:
# Experiment in all cases: KINOMEscan competition binding
# AURKC (human) = AURKC (human) (UniProt Q9UQB9)
# BRAF (human) = BRAF (human) (UniProt P15056)
# CDC2L2 (human) = CDC2L2 (human) (UniProt Q9UQ88)
# CDC42BPB (human) = CDC42BPB (human) (UniProt Q9Y5S2)
# CDK14 (human) = CDK14 (human) (UniProt O94921)
# CHUK (human) = CHUK (human) (UniProt O15111)
# CSK (human) = CSK (human) (UniProt P41240)
# CSNK1G1 (human) = CSNK1G1 (human) (UniProt Q9HCP0)
# EIF2AK2 (human) = EIF2AK2 (human) (UniProt P19525)
# EPHA8 (human) = EPHA8 (human) (UniProt P29322)
# HIPK3 (human) = HIPK3 (human) (UniProt Q9H422)
# IKBKB (human) = IKBKB (human) (UniProt O14920)
# IRAK1 (human) = IRAK1 (human) (UniProt P51617)
# LYN (human) = LYN (human) (UniProt P07948)
# MAP2K3 (human) = MAP2K3 (human) (UniProt P46734)
# MAPK9 (human) = MAPK9 (human) (UniProt P45984)
# MST1R (human) = MST1R (human) (UniProt Q04912)
# MYLK3 (human) = MYLK3 (human) (UniProt Q32MK0)
# PDGFRA (human) = PDGFRA (human) (UniProt P16234)
# PI4KB (human) = PI4KB (human) (UniProt Q9UBF8)
# RAF1 (human) = RAF1 (human) (UniProt P04049)
# RPS6KA4 KD1 (human) = RPS6KA4 KD1 (human) (UniProt O75676)
# SYK (human) = SYK (human) (UniProt P43405)
# TNIK (human) = TNIK (human) (UniProt Q9UKE5)
# TYRO3 (human) = TYRO3 (human) (UniProt Q06418)
# Chain of MST1R (human) (Q04912 whole entry, looked up): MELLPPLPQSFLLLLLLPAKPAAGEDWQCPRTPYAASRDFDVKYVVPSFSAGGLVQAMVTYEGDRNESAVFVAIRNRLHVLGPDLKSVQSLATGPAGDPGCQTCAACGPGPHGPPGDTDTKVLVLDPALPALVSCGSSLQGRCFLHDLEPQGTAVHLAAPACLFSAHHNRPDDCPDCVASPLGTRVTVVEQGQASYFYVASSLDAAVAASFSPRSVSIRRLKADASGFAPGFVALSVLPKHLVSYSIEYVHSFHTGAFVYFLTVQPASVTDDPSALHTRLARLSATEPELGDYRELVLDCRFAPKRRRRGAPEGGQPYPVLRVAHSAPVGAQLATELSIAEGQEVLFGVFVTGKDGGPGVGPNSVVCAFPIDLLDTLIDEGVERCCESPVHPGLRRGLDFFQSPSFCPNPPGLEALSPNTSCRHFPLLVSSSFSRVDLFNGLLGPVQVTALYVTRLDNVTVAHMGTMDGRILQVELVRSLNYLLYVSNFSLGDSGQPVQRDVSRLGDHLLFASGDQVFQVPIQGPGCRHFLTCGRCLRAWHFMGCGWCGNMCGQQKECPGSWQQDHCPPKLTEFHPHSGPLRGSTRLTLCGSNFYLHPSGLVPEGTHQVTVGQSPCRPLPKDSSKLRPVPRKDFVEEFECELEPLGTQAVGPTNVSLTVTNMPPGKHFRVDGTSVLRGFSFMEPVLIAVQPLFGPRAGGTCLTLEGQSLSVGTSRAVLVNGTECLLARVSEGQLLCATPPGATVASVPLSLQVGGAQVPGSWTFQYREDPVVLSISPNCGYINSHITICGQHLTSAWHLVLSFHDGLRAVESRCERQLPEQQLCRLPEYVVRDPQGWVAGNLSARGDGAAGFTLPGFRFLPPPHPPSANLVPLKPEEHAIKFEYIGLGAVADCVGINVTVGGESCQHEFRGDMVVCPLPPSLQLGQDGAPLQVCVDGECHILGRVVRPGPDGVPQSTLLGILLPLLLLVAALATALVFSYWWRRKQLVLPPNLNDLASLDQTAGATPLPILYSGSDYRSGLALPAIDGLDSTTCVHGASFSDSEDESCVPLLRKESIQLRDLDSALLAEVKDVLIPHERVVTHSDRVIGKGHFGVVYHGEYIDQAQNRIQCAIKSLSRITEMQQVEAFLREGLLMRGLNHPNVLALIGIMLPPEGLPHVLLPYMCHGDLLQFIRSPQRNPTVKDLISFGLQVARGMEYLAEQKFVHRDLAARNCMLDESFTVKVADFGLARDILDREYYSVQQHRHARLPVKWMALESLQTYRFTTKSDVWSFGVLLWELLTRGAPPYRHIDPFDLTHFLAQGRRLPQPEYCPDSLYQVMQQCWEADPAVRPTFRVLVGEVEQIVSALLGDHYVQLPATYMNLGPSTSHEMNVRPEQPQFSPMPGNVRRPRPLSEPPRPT
# Chain of CDC2L2 (human) (Q9UQ88 whole entry, looked up): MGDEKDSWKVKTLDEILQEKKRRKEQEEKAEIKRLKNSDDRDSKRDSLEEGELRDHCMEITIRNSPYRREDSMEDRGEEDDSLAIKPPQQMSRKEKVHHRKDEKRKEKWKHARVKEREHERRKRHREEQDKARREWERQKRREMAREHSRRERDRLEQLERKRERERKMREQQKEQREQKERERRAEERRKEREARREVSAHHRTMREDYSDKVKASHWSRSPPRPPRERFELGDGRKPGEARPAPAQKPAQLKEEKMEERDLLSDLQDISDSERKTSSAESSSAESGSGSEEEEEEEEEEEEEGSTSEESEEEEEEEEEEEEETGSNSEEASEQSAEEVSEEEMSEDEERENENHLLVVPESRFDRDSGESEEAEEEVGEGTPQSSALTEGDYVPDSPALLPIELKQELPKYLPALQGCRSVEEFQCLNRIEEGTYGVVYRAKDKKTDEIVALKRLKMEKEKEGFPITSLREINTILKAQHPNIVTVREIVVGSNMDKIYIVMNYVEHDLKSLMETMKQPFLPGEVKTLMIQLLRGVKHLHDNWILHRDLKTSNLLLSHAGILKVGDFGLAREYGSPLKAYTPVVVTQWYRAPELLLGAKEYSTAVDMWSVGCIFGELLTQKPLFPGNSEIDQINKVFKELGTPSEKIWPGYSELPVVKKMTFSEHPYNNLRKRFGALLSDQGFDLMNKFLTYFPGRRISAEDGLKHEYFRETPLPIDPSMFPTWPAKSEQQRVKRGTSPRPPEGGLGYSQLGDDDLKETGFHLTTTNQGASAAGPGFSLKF
# Chain of TNIK (human) (Q9UKE5 whole entry, looked up): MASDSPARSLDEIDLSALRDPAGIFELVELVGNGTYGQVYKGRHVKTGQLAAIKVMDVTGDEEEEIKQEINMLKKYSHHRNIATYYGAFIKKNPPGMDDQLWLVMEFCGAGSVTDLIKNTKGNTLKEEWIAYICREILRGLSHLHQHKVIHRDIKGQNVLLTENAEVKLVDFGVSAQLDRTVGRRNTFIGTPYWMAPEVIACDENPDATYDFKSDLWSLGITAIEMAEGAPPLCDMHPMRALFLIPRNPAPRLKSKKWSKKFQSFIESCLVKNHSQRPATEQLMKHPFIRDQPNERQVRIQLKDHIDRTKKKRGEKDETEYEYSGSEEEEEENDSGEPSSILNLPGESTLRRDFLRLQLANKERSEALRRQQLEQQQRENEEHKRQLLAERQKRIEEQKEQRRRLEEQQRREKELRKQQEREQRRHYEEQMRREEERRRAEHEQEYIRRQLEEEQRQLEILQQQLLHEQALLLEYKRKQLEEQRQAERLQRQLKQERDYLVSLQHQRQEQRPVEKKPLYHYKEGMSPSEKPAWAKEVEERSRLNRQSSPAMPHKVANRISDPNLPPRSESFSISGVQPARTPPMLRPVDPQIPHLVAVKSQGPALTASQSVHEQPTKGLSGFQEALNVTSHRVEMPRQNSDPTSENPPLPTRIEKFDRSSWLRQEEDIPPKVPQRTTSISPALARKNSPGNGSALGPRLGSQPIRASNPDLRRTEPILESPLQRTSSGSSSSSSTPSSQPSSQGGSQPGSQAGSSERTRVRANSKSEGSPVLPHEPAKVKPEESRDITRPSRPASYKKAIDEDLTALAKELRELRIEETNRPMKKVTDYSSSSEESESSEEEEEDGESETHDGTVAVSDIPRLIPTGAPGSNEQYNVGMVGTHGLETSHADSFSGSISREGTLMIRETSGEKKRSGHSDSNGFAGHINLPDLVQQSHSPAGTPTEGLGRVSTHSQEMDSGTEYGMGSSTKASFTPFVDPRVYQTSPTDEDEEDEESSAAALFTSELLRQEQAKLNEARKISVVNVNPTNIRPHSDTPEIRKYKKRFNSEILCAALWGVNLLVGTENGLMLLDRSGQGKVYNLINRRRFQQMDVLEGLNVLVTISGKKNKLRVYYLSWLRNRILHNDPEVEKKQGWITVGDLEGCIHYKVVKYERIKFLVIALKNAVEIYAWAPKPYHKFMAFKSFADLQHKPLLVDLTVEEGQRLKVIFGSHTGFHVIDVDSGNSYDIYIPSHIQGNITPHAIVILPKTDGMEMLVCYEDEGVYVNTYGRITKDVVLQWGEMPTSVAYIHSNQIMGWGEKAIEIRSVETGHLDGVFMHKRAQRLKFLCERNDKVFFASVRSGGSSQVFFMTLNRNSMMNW
# Chain of PI4KB (human) (Q9UBF8 whole entry, looked up): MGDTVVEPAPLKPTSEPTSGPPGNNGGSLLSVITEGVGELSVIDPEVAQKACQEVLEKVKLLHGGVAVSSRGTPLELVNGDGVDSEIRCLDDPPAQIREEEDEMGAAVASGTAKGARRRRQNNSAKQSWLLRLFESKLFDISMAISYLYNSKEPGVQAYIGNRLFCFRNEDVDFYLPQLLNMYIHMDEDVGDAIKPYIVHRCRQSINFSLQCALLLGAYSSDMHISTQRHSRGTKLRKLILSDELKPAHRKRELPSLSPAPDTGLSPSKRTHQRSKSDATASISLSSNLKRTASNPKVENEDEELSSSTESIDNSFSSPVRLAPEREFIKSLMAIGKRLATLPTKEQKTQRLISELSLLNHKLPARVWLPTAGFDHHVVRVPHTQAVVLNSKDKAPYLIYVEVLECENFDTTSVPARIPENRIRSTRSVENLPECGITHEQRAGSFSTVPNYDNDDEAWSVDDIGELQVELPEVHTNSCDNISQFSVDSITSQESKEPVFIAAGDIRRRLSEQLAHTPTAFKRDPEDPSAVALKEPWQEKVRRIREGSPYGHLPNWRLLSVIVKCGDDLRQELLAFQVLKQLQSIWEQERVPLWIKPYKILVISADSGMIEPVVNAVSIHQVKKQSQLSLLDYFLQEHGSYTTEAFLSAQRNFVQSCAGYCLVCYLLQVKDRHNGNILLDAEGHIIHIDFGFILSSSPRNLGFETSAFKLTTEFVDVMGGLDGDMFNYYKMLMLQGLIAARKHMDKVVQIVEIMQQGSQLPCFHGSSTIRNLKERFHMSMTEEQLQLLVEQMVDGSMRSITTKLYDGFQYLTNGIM
# Chain of CDK14 (human) (O94921 whole entry, looked up): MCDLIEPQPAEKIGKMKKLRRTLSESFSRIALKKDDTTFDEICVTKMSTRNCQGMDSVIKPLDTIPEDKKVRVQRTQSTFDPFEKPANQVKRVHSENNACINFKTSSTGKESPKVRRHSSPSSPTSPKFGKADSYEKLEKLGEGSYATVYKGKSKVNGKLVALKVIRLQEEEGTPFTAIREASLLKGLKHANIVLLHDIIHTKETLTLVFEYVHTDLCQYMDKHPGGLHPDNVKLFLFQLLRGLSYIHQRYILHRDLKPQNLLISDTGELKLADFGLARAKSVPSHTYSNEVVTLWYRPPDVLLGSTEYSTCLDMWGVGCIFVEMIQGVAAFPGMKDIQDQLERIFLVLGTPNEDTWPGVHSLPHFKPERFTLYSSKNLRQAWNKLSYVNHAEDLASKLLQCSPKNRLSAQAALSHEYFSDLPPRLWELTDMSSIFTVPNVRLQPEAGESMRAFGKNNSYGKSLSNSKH
smiles,measurement,setting,value
COc1cc2ncnc(Oc3cccc(NC(=O)Nc4cc(C(C)(C)C(F)(F)F)on4)c3)c2cc1OC,Kd,AURKC (human),10000 nM
same,Kd,BRAF (human),36 nM
same,Kd,CDC2L2 (human),170 nM
same,Kd,CDC42BPB (human),2000 nM
same,Kd,CDK14 (human),110 nM
same,Kd,CHUK (human),170 nM
same,Kd,CSK (human),700 nM
same,Kd,CSNK1G1 (human),36000 nM
same,Kd,EIF2AK2 (human),34000 nM
same,Kd,EPHA8 (human),14 nM
same,Kd,HIPK3 (human),120 nM
same,Kd,IKBKB (human),960 nM
same,Kd,IRAK1 (human),9600 nM
same,Kd,LYN (human),2 nM
same,Kd,MAP2K3 (human),31000 nM
same,Kd,MAPK9 (human),4.1 nM
same,Kd,MST1R (human),6400 nM
same,Kd,MYLK3 (human),26000 nM
same,Kd,PDGFRA (human),5.4 nM
same,Kd,PI4KB (human),29000 nM
same,Kd,RAF1 (human),39 nM
same,Kd,RPS6KA4 KD1 (human),1900 nM
same,Kd,SYK (human),260 nM
same,Kd,TNIK (human),66 nM
same,Kd,TYRO3 (human),1500 nM
